# Several values for one entry are separate records, joined by “and”; a condition that tells them apart may be missing. Equal entries are not always repeated.
# Assay: Dose accuracy study of the reconstituted composition comprising moxidectin and fluralaner
# Format: physicochemical
# Details: reconstituted composition of Example 9, 1 mL doses #1-6
# Protocol: The vial comprising moxidectin microspheres from Example 3 and fluralaner particles from Example 7 were reconstituted with 17 mL of the aqueous carrier of Example 6. During reconstitution the vial containing the moxidectin microspheres and fluralaner particles was rotated while being held horizontally throughout carrier addition.
# Once all the carrier was added, the vial was shaken for 1 minute.
# Herein, the vial with the reconstituted composition as described above was manipulated in one of the following ways: • vigorously hand shaken for 1, 2 or 3 minutes prior to sampling; • vigorously hand shaken for 3 minutes and mixed using the syringe 5 times prior to sampling; or • vigorously hand shaken for 3 minutes, mixed using the syringe 5 times and vortexed for […] prior to sampling.
# After the solid material was completely suspended, six 1 mL doses were sampled from the vial. Prior to each dose, the vial was vigorously shaken for 15 seconds to avoid settling between samples.
# Each of the six doses were transferred to a separate 50 mL volumetric flask along with 10 mL of water: then the samples were diluted to volume with 50/50 acetonitrile/isopropanol and sonicated for 20 minutes.
# These samples were analysed to determine the moxidectin concentration.
# Additionally, 1 mL of the samples were transferred into separate 25 mL volumetric flasks and diluted with 40/40/20 acetonitrile/isopropanol/water. The fluralaner concentrations were determined from these diluted samples.
compound,measurement,setting,value
"Cc1cc(C2=NOC(c3cc(Cl)cc(Cl)c3)(C(F)(F)F)C2)ccc1C(=O)NCC(=O)NCC(F)(F)F (centres unmarked) [Fluralaner, 4-[5-(3,5-dichlorophenyl)-5-trifluoromethyl-4,5-dihydroisoxazol-3-yl]-2-methyl-N-[(2,2,2-trifluoro-ethylcarbamoyl)-methyl]-benzamide]",Fluralaner Percent Label Claim,hand shaken for 1 minute,104.38 Percent Label Claim and 90.80 Percent Label Claim and 102.68 Percent Label Claim and 101.83 Percent Label Claim and 106.97 Percent Label Claim and 103.52 Percent Label Claim
same,Fluralaner Percent Label Claim,hand shaken for 2 minutes,80.44 Percent Label Claim and 103.67 Percent Label Claim and 102.82 Percent Label Claim and 84.95 Percent Label Claim and 99.01 Percent Label Claim and 107.40 Percent Label Claim
same,Fluralaner Percent Label Claim,hand shaken for 3 minutes,95.36 Percent Label Claim and 102.59 Percent Label Claim and 95.41 Percent Label Claim and 99.43 Percent Label Claim and 108.06 Percent Label Claim and 88.68 Percent Label Claim
same,Fluralaner Percent Label Claim,hand shaken for 3 minutes and mixed using a syringe,105.95 Percent Label Claim and 104.31 Percent Label Claim and 89.74 Percent Label Claim and 105.87 Percent Label Claim and 104.26 Percent Label Claim and 103.83 Percent Label Claim
same,Fluralaner Percent Label Claim,"hand shaken for 3 minutes, mixed using a syringe, and vortexed",100.86 Percent Label Claim and 106.80 Percent Label Claim and 105.14 Percent Label Claim and 105.86 Percent Label Claim and 106.37 Percent Label Claim and 104.61 Percent Label Claim

# — US20230310386A1, “INJECTABLE PHARMACEUTICAL COMPOSITIONS AND USES THEREOF” (Intervet Inc., priority 2020, published 2023)
